Laboratory results taken from patent publication US20230240953A1, “AN ANTIMICROBIAL COMPOSITION, PROCESS FOR PREPARING THE SAME AND METHOD OF USE THEREOF” (ISP INVESTMENTS LLC, priority 2020, published 2023).

Key:
Test in all cases: Checkerboard microplate synergy assay, compound A = HPB
Assay type in all cases: cell-based
[1] = test system: Aspergillus brasiliensis 16404; set-up: key to SI index (Synergy Index = Qa/QA+Qb/QB): SI = Qa/QA + Qb/QB (MICs in ppm); <1 synergy, =1 additive, >1 antagonism; conditions: for MIC: Aspergillus brasiliensis, 16404, compound B alone, read-out: Compound B (Qb): MIC of compound B acting alone; for Interaction / SI index (Synergy Index = Qa/QA+Qb/QB): HPB + compound B
Protocol: (§1) The synergistic antimicrobial effect was determined using a commonly accepted method described by Kull A. C, Eisman, P. C. Sylwestrowicz, H. D. and Mayer, R. L. 1961. Applied Microbiology, 9:538-541
(§2) Briefly, the standard checkerboard approach was used to make all the dilutions. HPB (compound A) solution was prepared and then serially diluted in DMSO using the 96-well dilution plate. Automated liquid handler was then used to stamp multiple assay plates using this dilution plate. Each well of the assay plate was then supplemented with a predetermined concentration of the second antimicrobial (compound B). The final concentration of DMSO was kept constant across the plate for each assay, not exceeding 3% (w/w).
To evaluate antifungal activity of the actives, freshly prepared A. brasiliensis spores were harvested and resuspended in Yeast and Malt Broth (YMB). The spore suspension was then added to the appropriate plates with the final density being 10^5 cfu/ml.
(§3) To evaluate antibacterial activity of the actives, freshly prepared S. aureus and B. cepacia cells were harvested and resuspended in Trypticase Soy Broth (TSB). The cell suspension was then added to the wells of the appropriate plates with the final cell density being 10^6 cfu/ml. Fungal plates were incubated at 28° C. for 4-5 days, prior to being evaluated. Bacterial plates were incubated for 48 hours at 35° C. prior to being evaluated.
(§4) Synergy Index (SI)=Qa/QA+Qb/QB • Qa is the MIC of compound A (HPB) in ppm, when compound A is being used in combination with compound B • QA is the MIC of compound A (HPB) in ppm, acting alone • Qb is the MIC of compound B in ppm, when the compound B is being used in combination with compound A • QB is the MIC of compound B in ppm, acting alone Each ratio Qa/QA and Qb/QB is sometimes referred to as Fractional Inhibitory Concentrations (FICs) of compounds A and B, respectively, when these two compounds are being used in combination with one another. The sum of FICs constitute the Synergy Index (SI). The synergistic effect is indicated if the Synergy Index is below one (SI<1). An additive effect is indicated if the Synergy Index is equal to one (SI=1). An antagonistic effect is indicated if synergy index is greater than one (SI>1). The lower the SI index the greater the synergy.

[2] = test system: Burkholderia cepacia 25416; conditions: B. cepacia; for Interaction / SI index (Synergy Index = Qa/QA+Qb/QB): HPB + compound B; for MIC: Burkholderia cepacia, 25416, read-out: Compound B (Qb): MIC of compound B acting alone; for MIC / Compound B (QB): MIC of compound B acting alone: compound B alone
Protocol: as §1, §2, §3, §4

[3] = test system: Staphylococcus aureus 6538; conditions: S. aureus; for Interaction / SI index (Synergy Index = Qa/QA+Qb/QB): HPB + compound B; for MIC: Staphylococcus aureus, 6538, read-out: Compound B (QB): MIC of compound B acting alone
Protocol: as §1, §2, §3, §4

## O=P(O)(O)O[C@H]1[C@H](OP(=O)(O)O)[C@@H](OP(=O)(O)O)[C@H](OP(=O)(O)O)[C@@H](OP(=O)(O)O)[C@H]1OP(=O)(O)O [Phytic acid]
[1]
  MIC: 12500 µg/mL
  Interaction: Synergistic (The synergistic effect is indicated if the Synergy Index is below one (SI<1))
  SI index (Synergy Index = Qa/QA+Qb/QB): 0.75
  Compound B (Qb): MIC of compound B when used in combination with HPB: 3,125 ppm

## CCCCCCCC(=O)NO [Caprylhydroxamic acid]
[2]
  Interaction: synergistic
  SI index (Synergy Index = Qa/QA+Qb/QB): 0.75
  Compound B (Qb): MIC of compound B when used in combination with HPB: 31.3 ppm
  MIC: 125 µg/mL
[3]
  Interaction: synergistic
  SI index (Synergy Index = Qa/QA+Qb/QB): ≤0.625
  Compound B (Qb): MIC of compound B when used in combination with HPB: 125 ppm
[3]; compound B alone
  MIC: 1000 µg/mL
[1]
  MIC: 250 µg/mL
  Interaction: Synergistic (The synergistic effect is indicated if the Synergy Index is below one (SI<1))
  SI index (Synergy Index = Qa/QA+Qb/QB): 0.5625
  Compound B (Qb): MIC of compound B when used in combination with HPB: 125 ppm

## Cc1occc(=O)c1O [Maltol]
[1]
  MIC: 2000 µg/mL
  Interaction: Synergistic (The synergistic effect is indicated if the Synergy Index is below one (SI<1))
  SI index (Synergy Index = Qa/QA+Qb/QB): 0.75
  Compound B (Qb): MIC of compound B when used in combination with HPB: 1,000 ppm

## O=C(O)c1ccccc1 [Benzoic acid]
[1]
  MIC: 1000 µg/mL
  Interaction: Synergistic (The synergistic effect is indicated if the Synergy Index is below one (SI<1))
  SI index (Synergy Index = Qa/QA+Qb/QB): 0.75
  Compound B (Qb): MIC of compound B when used in combination with HPB: 500 ppm

## Hexyl glycerin
[1]
  Interaction: Additive (An additive effect is indicated if the Synergy Index is equal to one (SI=1))
  SI index (Synergy Index = Qa/QA+Qb/QB): 1
  Compound B (Qb): MIC of compound B when used in combination with HPB: 1,600 ppm
  Compound B (Qb): MIC of compound B acting alone: 3,125 ppm

## CCCCC(O)CO (stereo not shown) [1,2-Hexanediol]
[1]
  MIC: 12500 µg/mL
  Interaction: Additive (An additive effect is indicated if the Synergy Index is equal to one (SI=1))
  SI index (Synergy Index = Qa/QA+Qb/QB): 1
  Compound B (Qb): MIC of compound B when used in combination with HPB: 6,300 ppm

## O=C(O)C=Cc1ccccc1 [Cinnamic acid]
[1]
  MIC: 500 µg/mL
  Interaction: Additive (An additive effect is indicated if the Synergy Index is equal to one (SI=1))
  SI index (Synergy Index = Qa/QA+Qb/QB): 1-2
  Compound B (Qb): MIC of compound B when used in combination with HPB: 500 ppm

## CCCCC(CC)COCC(O)CO (stereo not shown) [Ethylhexylglycerin]
[1]
  Interaction: Synergistic (The synergistic effect is indicated if the Synergy Index is below one (SI<1))
  SI index (Synergy Index = Qa/QA+Qb/QB): 0.56
  Compound B (Qb): MIC of compound B when used in combination with HPB: 100 ppm
  Compound B (Qb): MIC of compound B acting alone: 1,600 ppm

## [F-].[Na+] [Sodium fluoride]
[2]
  Interaction: synergistic
  SI index (Synergy Index = Qa/QA+Qb/QB): ≤0.625
  Compound B (Qb): MIC of compound B when used in combination with HPB: 10,000 ppm
  Compound B (QB): MIC of compound B acting alone: ≥200,000 ppm

## Glyceryl caprylate/caprate
[1]
  Interaction: Synergistic (The synergistic effect is indicated if the Synergy Index is below one (SI<1))
  SI index (Synergy Index = Qa/QA+Qb/QB): 0.75
  Compound B (Qb): MIC of compound B when used in combination with HPB: 800 ppm
  Compound B (Qb): MIC of compound B acting alone: 3,125 ppm

## CCCCCCC(O)CO (stereo not shown) [1,2-Octanediol]
[1]
  MIC: 1600 µg/mL
  Interaction: Synergistic (The synergistic effect is indicated if the Synergy Index is below one (SI<1))
  SI index (Synergy Index = Qa/QA+Qb/QB): 0.56
  Compound B (Qb): MIC of compound B when used in combination with HPB: 100 ppm

## OCCCc1ccccc1
[2]
  Interaction: synergistic
  SI index (Synergy Index = Qa/QA+Qb/QB): 0.75
  Compound B (Qb): MIC of compound B when used in combination with HPB: 156 ppm
  Compound B (QB): MIC of compound B acting alone: 625 ppm
[3]
  Interaction: synergistic
  SI index (Synergy Index = Qa/QA+Qb/QB): ≤0.5625
  Compound B (Qb): MIC of compound B when used in combination with HPB: 156 ppm
[3]; compound B alone
  Compound B (QB): MIC of compound B acting alone: 2,500 ppm

## O=C(O)CC[C@@H](C(=O)O)N(CC(=O)O)CC(=O)O [GLDA]
[1]
  Interaction: Synergistic (The synergistic effect is indicated if the Synergy Index is below one (SI<1))
  SI index (Synergy Index = Qa/QA+Qb/QB): 0.75
  Compound B (Qb): MIC of compound B when used in combination with HPB: 1,600 ppm
  Compound B (Qb): MIC of compound B acting alone: 6,250 ppm

## COc1ccc(C(=O)O)cc1 [Anisic acid]
[1]
  Interaction: Synergistic (The synergistic effect is indicated if the Synergy Index is below one (SI<1))
  SI index (Synergy Index = Qa/QA+Qb/QB): 0.75
  Compound B (Qb): MIC of compound B when used in combination with HPB: 250 ppm
  Compound B (Qb): MIC of compound B acting alone: 1,000 ppm

## OCCc1ccccc1 [Phenethyl alcohol]
[2]
  Interaction: synergistic
  SI index (Synergy Index = Qa/QA+Qb/QB): 0.625
  Compound B (Qb): MIC of compound B when used in combination with HPB: 125 ppm
  MIC: 1000 µg/mL
[3]
  Interaction: synergistic
  SI index (Synergy Index = Qa/QA+Qb/QB): ≤0.75
  Compound B (Qb): MIC of compound B when used in combination with HPB: 2,000 ppm
[3]; compound B alone
  MIC: ≥ 4000 µg/mL

## OCc1ccccc1 [Benzyl alcohol]
[3]
  Interaction: synergistic
  SI index (Synergy Index = Qa/QA+Qb/QB): ≤0.625
  Compound B (Qb): MIC of compound B when used in combination with HPB: 625 ppm
[3]; compound B alone
  MIC: 5000 µg/mL
[1]
  MIC: 5000 µg/mL
  Interaction: Synergistic (The synergistic effect is indicated if the Synergy Index is below one (SI<1))
  SI index (Synergy Index = Qa/QA+Qb/QB): 0.75
  Compound B (Qb): MIC of compound B when used in combination with HPB: 2,500 ppm

## O=C(O)CN(CCN(CC(=O)O)CC(=O)O)CC(=O)O [EDTA]
[1]
  Interaction: Synergistic (The synergistic effect is indicated if the Synergy Index is below one (SI<1))
  SI index (Synergy Index = Qa/QA+Qb/QB): 0.56
  Compound B (Qb): MIC of compound B when used in combination with HPB: 800 ppm
  Compound B (Qb): MIC of compound B acting alone: 12,500 ppm

## CCCC(O)CO (stereo not shown) [1,2-Pentanediol]
[1]
  MIC: 100000 µg/mL
  Interaction: Additive (An additive effect is indicated if the Synergy Index is equal to one (SI=1))
  SI index (Synergy Index = Qa/QA+Qb/QB): 1
  Compound B (Qb): MIC of compound B when used in combination with HPB: 50,000 ppm

## OCCCO [1,3-Propanediol]
[1]
  Interaction: Additive (An additive effect is indicated if the Synergy Index is equal to one (SI=1))
  SI index (Synergy Index = Qa/QA+Qb/QB): ≤1
  Compound B (Qb): MIC of compound B when used in combination with HPB: 100,000 ppm
  Compound B (Qb): MIC of compound B acting alone: ≥200,000 ppm

## CCCCNC(=O)OCC#CI [lodopropynyl butylcarbamate (IPBC), lodopropynyl butylcarbamate]
[2]
  Interaction: synergistic
  SI index (Synergy Index = Qa/QA+Qb/QB): 0.508
  Compound B (Qb): MIC of compound B when used in combination with HPB: 2 ppm
  Compound B (QB): MIC of compound B acting alone: 250 ppm
